Test results reported in patent US5140009A (Tap Pharmaceuticals, Inc., priority 1990, dated 1992).
Blank lines part the entries; values can stand above or below the compound they belong to. Numbered stars: 1 amine (or outer) side, 2 acyl side, 3 side chain; on linkers, the order of the positions; unused ones are H or OH. Square brackets hold non-standard residues; d marks the D form. Side chains are listed from the residue outwards. Peptide text beside a SMILES is read from it. * marks the point of attachment. Propanoyl(3-(4-F-phenyl)) = O=C(CCc1ccc(F)cc1)*; d1Nal = N[C@H](Cc1cccc2ccccc12)C(=O)O; Lys(iPr) = CC(C)NCCCC[C@H](N)C(=O)O; NMeY = CN[C@@H](Cc1ccc(O)cc1)C(=O)O; Piperazinyl(4-Me) = CN1CCN(*)CC1; Nicotinoyl = O=C(c1cccnc1)*; CO = O=C([*:1])[*:2]

Tests used:
[1] = target: T1, LHRH receptors (Rattus norvegicus, UniProt P30969); experiment: Receptor Binding (radioligand receptor binding assay); details: rat pituitary membranes, 2 hours at 4° C.; for Ki: read-out: Receptor Binding pkI (converted)
T1 construct: Pituitary membranes containing LHRH receptors are prepared in batches from quick-frozen rat pituitaries; tissue Hilltop Labs; host or cells: rat pituitary membranes
T1 sequence (P30969 1-327): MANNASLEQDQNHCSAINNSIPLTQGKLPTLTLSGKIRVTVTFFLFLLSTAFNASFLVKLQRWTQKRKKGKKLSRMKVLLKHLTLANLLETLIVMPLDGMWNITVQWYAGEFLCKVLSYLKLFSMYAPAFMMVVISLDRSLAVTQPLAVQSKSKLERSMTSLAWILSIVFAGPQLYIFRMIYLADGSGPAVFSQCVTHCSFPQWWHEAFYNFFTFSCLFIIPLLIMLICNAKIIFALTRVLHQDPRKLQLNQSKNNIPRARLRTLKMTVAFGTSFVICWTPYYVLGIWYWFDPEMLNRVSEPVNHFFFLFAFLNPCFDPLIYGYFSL

[2] = system: male castrate rats; experiment: In vivo LH Inhibiton; design: species or system rat; details: table 4, 30 ug/kg subcutaneously by bolus injection, AUC of log (LHt /LHi)
Procedure: (c) In vivo LH Inhibiton. The compound to be tested is administered at 30 ug/kg subcutaneously by bolus injection to male castrate rats and blood samples are collected periodically over 24 hours. The AUC (area under the curve) of the LH suppression data as a function of time is calculated using the formula log (LHt /LHi) wherein LHt is the LH concentration in the blood at time t and LHi is the initial baseline LH concentration in the blood. The AUC values are negative numbers.

[3] = system: castrated rats; experiment: In vivo LH Release; design: species or system rat; details: table 3, dose producing half-maximal LH release
Procedure: (d) In vivo LH Release. The compound to be tested is administered to castrated rats intraveneously and the serum LH concentration at various time points is measured by RIA. The time integrated LH response is calculated and the dose producing half-maximal LH release (ED50) is reported.

[4] = target: T2, Rat pituitaries (Rattus norvegicus, UniProt P30969); experiment: In vitro LH release suppression by LHRH antagonists in presence of superagonist [D-Leu^6 -Pro^9 NHEt]LHRH (pA2); assay type: cell-based; details: negative log of concentration producing half-maximum suppression of LH
T2 sequence (P30969 1-327): T1 sequence (P30969 1-327)

Receptor Binding pkI ([1]; table 3, radioiodinated [D-Leu^6 -des Gly^10 ]-LHRH ethyl amide 50 pM): 9.51 | LH Inhibition pA2 ([4]; table 3): 8.63
Compound: (2-9)[N-(N-alpha-Morpholinocarbonyl)-D,L-4-F-Phe^2 -D-Trp^6 -Pro^9 NHEt]LHRH [Compound 113]

Receptor Binding pkI ([1]; table 4, radioligand 50 pM): 10.55 | LH Inhibition pA2 ([4]; table 4): 9.32
Compound: (3-10)[N-(3-(4-Fluorophenyl)propionyl)-D-Trp^3 -NMeTyr^5 -D-Lys^6 -D-Ala^10 ]LHRH [Compound 182]

Continued, compound first:

Compound: CCNC(=O)[C@@H]1CCCN1C(=O)[C@H](CCCCNC(C)C)NC(=O)[C@H](CC(C)C)NC(=O)[C@@H](CCCCNC(=O)c1cccnc1)NC(=O)[C@H](Cc1ccc(O)cc1)N(C)C(=O)[C@H](CO)NC(=O)[C@@H](Cc1cccc2ccccc12)NC(=O)CCc1ccc(F)cc1 [Compound 209, N-(3-(4-Fluorophenyl)propionyl)-D-1-Nal-Ser-NMeTyr-D-Lys(N-epsilon-nicotinyl)-Leu-Lys(N-epsilon-isopropyl)-Pro-NHEt] ({Propanoyl(3-(4-F-phenyl))}-[d1Nal]S[NMeY][dK](Nicotinoyl)L[Lys(iPr)]P-NHEt)
Ki ([1]; table 4, radioligand 50 pM): 2.4 pM | AUC (24 hr. after 30 ug/kg) [2]: -343

Compound: CC(C)C[C@H](NC(=O)[C@@H](CCCCNC(=O)N1CCN(C)CC1)NC(=O)[C@H](Cc1ccc(O)cc1)N(C)C(=O)[C@H](CO)NC(=O)[C@@H](Cc1cccc2ccccc12)NC(=O)CCc1ccc(F)cc1)C(=O)N[C@@H](CCCNC(=N)N)C(=O)N1CCC[C@H]1C(=O)N[C@H](C)C(N)=O [Compound 211, N-(3-(4-Fluorophenyl)propionyl)-D-1-Nal-Ser-NMeTyr-D-Lys(N-epsilon-N'-N"-methylpiperazinecarbonyl)-Leu-Arg-Pro-D-AlaNH2] ({Propanoyl(3-(4-F-phenyl))}-[d1Nal]S[NMeY][dK]([CO-Piperazinyl(4-Me)])LRP[dA]-NH2)
Ki ([1]; table 4, radioligand 50 pM): 15.1 pM | AUC (24 hr. after 30 ug/kg) [2]: -449

Compound: CC(C)C[C@H](NC(=O)CNC(=O)[C@H](Cc1ccc(O)cc1)NC(=O)[C@H](CO)NC(=O)[C@H](Cc1c[nH]c2ccccc12)NC(=O)[C@H](Cc1c[nH]cn1)NC(=O)[C@@H]1CCC(=O)N1)C(=O)N[C@@H](CCCNC(=N)N)C(=O)N1CCC[C@H]1C(=O)NCC(N)=O [LHRH, Luteinizing hormone releasing hormone]
ED50 ug/kg i.v. [3]: 859 µg/kg
